Reference: US20250262241A1, “METHODS TO IMPROVE STABILITY OF VIRUS TRANSDUCTION OF y8 T CELLS AND APPLICATIONS THEREOF” (UNICET BIOTECH CO. LLC., priority 2021, published 2025)
Where “and” joins values, the source holds several entries; their conditions need not be identical. Equal entries are not always repeated.

Assays:
Assay type in all cases: cell-based, human
[1] = tested on: γδ2 T cells; assay: Lentivirus (GFP) transduction of γδ2 T cells with or without BX795
Protocol: VSV-G pseudotyped lentiviral vectors were applied in this method. 1×10^7 293T cells were plated into a poly-D-lysine coated 100 mm dish. Next day the cells were transfected with 6 μg of pCDH-EF1-MCS-T2A-copGFP plasmid (Addgene, Plasmid #72263) or pCDH-EF1-CAR-T2A-copGFP plasmid modified from pCDH-EF1-MCS-T2A-copGFP, 4 μg of pspAx2 (Addgene, Plasmid #12260), 2 μg of pCMV-VSV-G (Addgene, Plasmid #8454) using 30 ug PEI transfection regents. After 8 hours of transfection, the cell culture medium was changed. The supernatant were collected 48 hours and 72 hours later. Concentrated the virus with Lenti-X™ Concentrator (Takara) and monitored the virus titers by transduction of 293T cells and stored the concentrated virus in −80° C. until further use.
For lentivirus transduction, 1×10^CFU lentivirus diluted in 200 ul PBS were added in a 24-well plate which were pre-coated with RetroNectin reagent (Takara) and centrifugated by 2,000 g for 2 hours at 32° C. After centrifugation, removed the supernatant and washed the plate with PBS three times slightly.
The plates were incubated at 37° C., 5% CO2.
(§1) After incubation, washed the cells with FACS buffer two times and then resuspended the cells in 200 ul FACS buffer and calculated the data by FACSCalibur (BD Biosciences). The antibodies used for γδ2 T cells were: APC anti-human CD3 (Biolegend, 300412), BV421 anti-human TCR Vδ2 (Biolegend, 331428).

[2] = tested on: γδ T cell products cultured from PBMC; conditions: 0.6 μM BX795, after 12 Days in vitro culture
Protocol: (§2) Wash the cells once with PBS and then staining the cells with antibodies diluted in FACS buffer (PBS+1% FBS+2.5 mM EDTA) at 4° C. for 30 min. The common volume of incubated buffer was 50 μL for 2×10^cells.
as §1
The calculated cell types included γδ2 T, γδ2 CD56+ T, γδ1 T, αβT, NKT, T helper, cytotoxic T, B and NK cells.

[3] = tested on: γδ2 T cells; assay: Exhausted marker expression of γδ2 T cells cultured with/without BX795
Protocol: as §2, §1

[4] = tested on: γδ2 T cells; assay: Differentiation of γδ2 T cells cultured with/without BX795 (flow cytometry)
Protocol: as §2, §1
On the other hand, the terminator γδ2 T cell percentage decreased from 2.595% to around 2%.

For BX795, the “total positive transduced γδ2 T cells” value ([1]; 0.2 μM or 0.6 μM BX795) was “greatly increased”, the “final transduction rate, 2 μM compared with 0.6 μM BX795” value ([1]; 2 μM BX795) was “not significant” and the “cell number of transduced γδ2 T cells” value ([1]; 2 μM or 6 μM BX795, vs control group) was “lower than the control group”. The “B cell (CO3−TCRVδ2−CD19+), cell percentage of total lymphocytes” value [2] was 0.27% and 0.32%, the “NK cell (CD3−TCRVδ2−CD56+), cell percentage of total lymphocytes” value [2] was 2.66% and 2.20% and the “NKT cell (CD3+TCRVδ2−TCRVδ1−TCRαβ+CD56+), cell percentage of total lymphocytes” value [2] was 0.34% and 0.31%. For the same substance, the “T helper cell (CD3+TCRVδ2−TCRVδ1− TCRαβ+CD56−CD8−CD4+), cell percentage of total lymphocytes” value [2] was 5.26% and 5.40%, the “cell types of the final γδ T cell products vs control group” value [2] was “comparable cell types with the control group” and the “αβ T cell (CD3+TCRVδ2−TCRVδ1−TCRαβ+), cell percentage of total lymphocytes” value [2] was 7.22% and 7.20%. The “γδ2 CD56+ T cell (CD3+TCRVδ2+ CD56+), cell percentage of total lymphocytes” value [2] was 1.89% and 1.69%, the “γδ2 T cell (CD3+TCRVδ2+), cell percentage of total lymphocytes” value [2] was 85.93% and 86.52% and the “cell percentage of exhausted cell types (PD-1, LAG-3, TIGIT, TIM-3)” value ([3]; BX795 treatment vs control) was “improved the cell percentage of all the exhausted cell types slightly”. For the same substance, the “γδ2 LAG-3+ T cell (CD3+TCRVδ2+LAG-3+), cell percentage of total lymphocytes” value ([3]; cultured with BX795) was 85.58% and 85.77%, the “γδ2 PD-1+ T cell (CD3+TCRVδ2+PD-1+), cell percentage of total lymphocytes” value ([3]; cultured with BX795) was 11.83% and 11.17% and the “γδ2 T cell (CD3+TCRVδ2+), cell percentage of total lymphocytes” value ([3]; cultured with BX795) was 85.75% and 85.94%. The “γδ2 TIGIT+ T cell (CD3+TCRVδ2+TIGIT+), cell percentage of total lymphocytes” value ([3]; cultured with BX795) was 23.24% and 26.98%, the “γδ2 TIM-3+ T cell (CD3+TCRVδ2+TIM-3+), cell percentage of total lymphocytes” value ([3]; cultured with BX795) was 84.55% and 84.91% and the “changes in differentiation of γδ2 T cell subtypes” value ([4]; BX795 treatment vs control) was “No significant changes were found”. For the same substance, the “central memory γδ2 T cells percentage rate” value ([4]; adding BX795, control 1.865%) was 4.225%, the “terminator γδ2 T cell percentage” value ([4]; adding BX795, control 2.595%) was “around 2%” and the “Central memory γδ2 cell (CD3+TCRVδ2+ CD27+CD45RA−), cell percentage of total lymphocytes” value ([4]; cultured with BX795) was 3.88% and 4.57%. The “Effector γδ2 T cell (CD3+TCRVδ2+ CD27−CD45RA−), cell percentage of total lymphocytes” value ([4]; cultured with BX795) was 81.23% and 80.00%, the “Terminator γδ2 T cell (CD3+TCRVδ2+ CD27−CD45RA+), cell percentage of total lymphocytes” value ([4]; cultured with BX795) was 1.91% and 2.03% and the “naive γδ2 T cell (CD3+TCRVδ2+ CD27+CD45RA+), cell percentage of total lymphocytes” value ([4]; cultured with BX795) was 0.25% and 0.10%. The “γδ2 CD226+T cell (CD3+TCRVδ2+CD226+), cell percentage of total lymphocytes” value ([4]; cultured with BX795) was 87.25% and 86.59%, the “γδ2 NKG2D+T cell (CD3+TCRVδ2+NKG2D+), cell percentage of total lymphocytes” value ([4]; cultured with BX795) was 87.17% and 86.50% and the “γδ2 T cell (CD3+TCRVδ2+), cell percentage of total lymphocytes” value ([4]; cultured with BX795) was 87.25% and 86.68%.
